Measurements taken from patent publication US4110368A, “Hydro substituted prostanoic acids and esters” (American Cyanamid Company, priority 1977, dated 1978).

Key:
[1] = tested on: gastric acid secretion; assay: gastric acid secretion inhibition, modified Shay rat procedure; format: in vivo, rat (male, CFE strain); conditions: intraduodenal dose 100 mg./kg. of body weight; 3 hours; 20% or more = active
Procedure: The novel compounds of the present invention are also effective inhibitors of gastric acid secretion and of ulcer development in experimental animals, and thus are potentially valuable as agents for the control of gastric acid secretion and of gastric erosion and as anti-ulcer agents. Gastric acid secretion inhibitory action is usually measured by the "Shay rat" procedure ^(1,2) with some modifications as follows.
The rats (male, CFE strain) were starved for 48 hours (water was given ad libitum) to permit evacuation of stomach contents. On the morning of the experiment, under ether anesthesia, the abdominal region was shaved and a midline incision (1-1 1/2 inch) was made with a scapel. […]
The abdominal cavity was exposed by cutting with scissors and the esophagus close to the stomach was clamped off with a hemostat, the stomach was removed by cutting above the hemostat (the esophagus was cut) and between the two sutures. […] The supernatant was collected, volume measured and recorded, 2 drops of a phenolphthalein indicator (1% in 95% ethanol) were added and the solution was titrated with 0.02N NaOH (or with 0.04N NaOH when large volumes of stomach contents were encountered) to pH 8.4 (because of usual coloring of the stomach contents, phenolphthalein was only used to permit visual indication that the end point was near) and the amount of acid present was calculated. […]

[2] = tested on: ulcerogenic properties of indomethacin; assay: protection against indomethacin-induced ulcers (ulcer score); format: in vivo, rat; conditions: two half doses by gavage, indomethacin 20 mg./kg. s.c., ulcer scale 0-4, score 2.5 or lower = active
Procedure: The compounds of this invention provide protection against the ulcerogenic properties of indomethacin. This assay was carried out in the following manner.
Rats were starved for 48 hours (water was given ad libitum). Indomethacin (20 mg./kg. of body weight) was administered by the subutaneous route and one-half the dose of the test compound was administered by gavage at the same time. After 3 hours, the second half of the test compound was administered also by Gavage. Five hours after the administration of indomethacin the animals were decapitated and the stomachs removed. The stomachs were washed with distilled water, blotted on gauze, cut along the larger curvature, and the contents rinsed with distilled water. The stomachs were spread out, pinned on a cork and visualized under magnifying glass for ulcers. The criteria for scoring of ulcers was as previously reported. [Abdel-Galil et al. Brit. J. Pharmac. Chemotherapy 33:1-14 (1968)].
1 -- Petechial hemorrhage or pin point ulcer
3 -- Many ulcers, a few large
4 -- Many ulcers, mainly large
Control animals treated with indomethacin but not test compound consistently give scores of about 3.0-3.5. Control animals treated with neither indomethacin nor test compound give scores of about 0.5-0.8. Compounds producing a score of 2.5 or lower are considered to be active.

[3] = total oral dose 25 mg./kg. of body weight, control 3.2

## CCCCCC(O)/C=C/[C@H]1CCC(=O)[C@@H]1CCCCC(C)(C)CC(=O)O (relative stereo) [9-oxo-15-hydroxy-3,3-dimethyl-13-trans-prostenoic acid]
[1]
  Percent Inhibition (gastric acid secretion): 51%

## CCCCC[C@@H](O)/C=C/[C@H]1CCC(=O)[C@@H]1CCCCSCC(=O)O (relative stereo) [9-oxo-3-thia-15-epi-hydroxy-13-trans-prostenoic acid]
[2]; [3]
  Score, Treated: 2.3

## CCCCC(CC)C(O)/C=C/[C@H]1CCC(=O)[C@@H]1CCCCCCC(=O)O (relative stereo) [9-oxo-15-hydroxy-16-ethyl-13-trans-prostenoic acid]
[2]; [3]
  Score, Treated: 1.7

## CCCCCC(O)/C=C/[C@H]1CCC(=O)[C@@H]1CCCCCC(CC)C(=O)O (relative stereo)
[2]; total oral dose 50 mg./kg. of body weight, control 3.0
  Score, Treated: 2.2

## CCCCCC(O)/C=C/C1CCC(=O)C1CCCCSCC(=O)O (stereo not drawn) [9-oxo-3-thia-15-hydroxy-13-trans-prostenoic acid]
[2]; [3]
  Score, Treated: 1.8

## CCCCCC(O)/C=C/C1CCC(=O)C1(C)CCCCCCC(=O)O (stereo not drawn) [9-oxo-8β-methyl-15-hydroxy-13-trans-prostenoic acid]
[2]; total oral dose 12.5 mg./kg. of body weight, control 3.0
  Score, Treated: 2.0

## CCCCCC(O)/C=C\[C@H]1CCC(=O)[C@@H]1CCCCCCC(=O)O (relative stereo) [9-oxo-15-hydroxy-13-cis-prostenoic acid, 15-hydroxy-9-oxo-13-cis-prostenoic acid]
[2]; total oral dose 100 mg./kg. of body weight, control 3.0
  Score, Treated: 1.3
